# Read-outs that look alike come from different tables or passages of the source.
# Experiments:
# [1] = tested on: Six human cancer cell lines (Hs683, U-373MG, HCT-15, LoVo, A549, MCF-7); assay: MTT test of overall cell growth; format: cell-based
# Procedure: In order to characterize the in vitro activity of the compounds of the invention, MTT tests were performed to indirectly and rapidly measure, i.e. within 5 days, the effect of such a compound on the overall cell growth. The test measures the number of metabolically active living cells that are able to transform the yellow product 3-(4,5-dimethylthiazol-2-yl)-2,5-diphenyl tetrazolium bromide (herein referred as MTT) into the blue product formazan dye by mitochondrial reduction. The amount of formazan obtained at the end of the experiment was measured by means of a spectrophotometer and is directly proportional to the number of living cells. Determination of the optical density enables a quantitative measurement of the effect of the investigated compounds as compared to the control condition (untreated cells) and/or to other reference compounds (in casu mitonafide and amonafide).
# Six human cancer cell lines described in table 1 were used in the MTT tests. These cell lines cover four histological cancer types, being glioma, colon, lung and breast cancers. Cells were allowed to grow in 96-well micro-wells with a flat bottom with an amount of 100 μl of cell suspension per well with 1,000 to 4,000 cells/well depending on the cell type used. Each cell line was seeded in an MEM 5% serum culture medium.
# The detailed experimental procedure was as follows: after a 24-hour period of incubation at 37° C., the culture medium was replaced by 100 μl of fresh medium in which the compound to be tested was dissolved at the following molar concentrations: 10^−9 M, 5.10^−9 M, 10^−8 M, 5.10^−8 M, 10^−7 M, 5.10^−7 M, 10^−6 M, 5.10^−6 M and 10^−5 M. Each experiment was repeated 6 times.
# After 72 hours of incubation at 37° C. with (experimental conditions) or without (control condition) the compound to be tested, the medium was replaced by 100 μl MTT dissolved in RPMI at a concentration of 1 mg/ml. The micro-wells were subsequently incubated during 3 hours at 37° C. and centrifuged at 400 g during 10 minutes. MTT was removed and formazan crystals formed were dissolved in 100 μl DMSO. The micro-wells were shaken for 5 minutes and read on a spectrophotometer at wavelengths of 570 nm (maximum formazan absorbance) and 630 nm (background noise).
# For each experimental condition, the mean optical density was calculated, as well as the percentage of remaining living cells in comparison with the control.
# in vivo = settings: mouse
# Procedure: The maximum tolerated dose (herein after MTD) is defined as the maximum amount of a given drug which can be administered acutely (i.e. in one intraperitoneal, intravenous, subcutaneous or oral single dose) to healthy animals, i.e. animals not grafted with tumors. The survival times and weights of the animals are recorded up to 14 days post injection. Five different doses of each drug are used for the determination of the MTD index. […] Each experimental group comprised 3 mice for the determination of the MTD index (expressed in mg/kg).
# [2] = Homo sapiens, 72 h, range of molar concentrations giving 50% inhibition of overall tumor cells growth, MTT, 72 hours incubation, six human cancer cell lines, read-out: IC50
# [3] = range of molar concentrations giving 50% inhibition of overall tumor cells growth, MTT, 72 hours incubation, six human cancer cell lines, hydrochloride, read-out: IC50
# 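Throughout, for MTD: highest single acute dose (intraperitoneal, intravenous, subcutaneous or oral) tolerated by tumor-free mice, assessed across five dose levels per drug.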
SMILES,"IC50 [1, 2]",MTD at 14 days (in vivo),further results
"CN(C)CCN1C(=O)c2cccc3cc(NC(=O)NC(=O)CCl)cc(c23)C1=O [Example 1, 2-chloro-N-[({2-[2-(dimethylamino)ethyl]-1,3-dioxo-2,3-dihydro-1H-benzo[de]isoquinolin-5-yl}amino)carbonyl]acetamide]",1 to 5 µM,,
"CN(C)CCN1C(=O)c2cccc3cc(NC(=O)NC(=O)c4ccccc4)cc(c23)C1=O [Example 3, N-[({2-[2-(dimethylamino)ethyl]-1.3-dioxo-2,3-dihydro-1H-benzo[de]isoquinolin-5-yl}amino)carbonyl]benzamide]",1 to 5 µM,,MTD at 14 days (in vivo; intraperitoneal): 80 mg/kg
"CCOC(=O)NC(=O)Nc1cc2c3c(cccc3c1)C(=O)N(CCN(C)C)C2=O [Example 4, ethyl({2-[2-(dimethylamino)ethyl]-1.3-dioxo-2,3-dihydro-1H-benzo[de]isoquinolin-5-yl}amino)carbonylcarbamate]",1 to 5 µM,80 mg/kg,
"CN(C)CCN1C(=O)c2cccc3cc(NC(=O)NCCCl)cc(c23)C1=O [Example 5, N-[2-[2-(dimethylamino)ethyl]-1,3-dioxo-2,3-dihydro-1H-benzo[de]isoquinolin-5-yl]-N′-(2-chloroethyl)urea]",,> 160 mg/kg,"IC50 ([1]; Homo sapiens, 72 h): 1 to 5 µM"
"CN(C)CCN1C(=O)c2cccc3cc(NC(=O)Nc4ccc(Cl)cc4)cc(c23)C1=O [Example 6, N-[2-[2-(dimethylamino)ethyl]-1,3-dioxo-2,3-dihydro-1H-benzo[de]isoquinolin-5-yl]-N′-(4-chlorophenyl)urea]",1 to 5 µM,,MTD at 14 days (in vivo; intraperitoneal): > 160 mg/kg
CCOC(=O)c1ccc(NC(=O)Nc2cc3c4c(cccc4c2)C(=O)N(CCN(C)C)C3=O)cc1 [Example 8],1 to 5 µM,,MTD at 14 days (in vivo; intraperitoneal): > 160 mg/kg
CCOC(=O)CCC(=O)Nc1cc2c3c(cccc3c1)C(=O)N(CCN(C)C)C2=O [Example 11],> 10 µM,,MTD at 14 days (in vivo; intraperitoneal): > 160 mg/kg
"CN(C)CCN1C(=O)c2cccc3cc(NC(=O)CCCCl)cc(c23)C1=O [Example 12, 4-chloro-N-{2-[2-(dimethylamino)ethyl]-1,3-dioxo-2,3-dihydro-1H-benzo[de]isoquinolin-5-yl}butanamide]",> 10 µM,,
"CN(C)CCN1C(=O)c2cccc3cc(NC(=O)Cc4ccc(Cl)cc4)cc(c23)C1=O [Example 13, 2-(4-chlorophenyl)-N-{2-[2-(dimethylamino)ethyl]-1,3-dioxo-2,3-dihydro-1H-benzo[de]isoquinolin-5-yl}acetamide]",5 to 10 µM,,
"CCOC(=O)CC(=O)Nc1cc2c3c(cccc3c1)C(=O)N(CCN(C)C)C2=O [Example 14, ethyl 3-({2-[2-(dimethylamino)ethyl]-1,3-dioxo-2,3-dihydro-1H-benzo[de]isoquinolin-5-yl}amino)-3-oxopropanoate]",> 10 µM,,
"COc1ccc(CC(=O)Nc2cc3c4c(cccc4c2)C(=O)N(CCN(C)C)C3=O)cc1 [Example 15, 2-(4-methoxyphenyl)-N-{2-[2-(dimethyl-amino)ethyl]-1,3-dioxo-2,3-dihydro-1H-benzo[de]isoquinolin-5-yl}acetamide]",1 to 5 µM,,
"CN(C)CCN1C(=O)c2cccc3cc(NC(=O)C(Cl)(Cl)Cl)cc(c23)C1=O [Example 16, 2,2,2-trichloro-N-{2-[2-(dimethylamino)ethyl]-1,3-dioxo-2,3-dihydro-1H-benzo[de]isoquinolin-5-yl}acetamide]",> 10 µM,> 80 mg/kg,
"COc1cc(C=Nc2cc3c4c(cccc4c2)C(=O)N(CCN(C)C)C3=O)ccc1O [Example 18, 5-{[(1Z)-(4-hydroxy-3-methoxyphenyl)methylene]amino}-2-[2-(dimethylamino)ethyl]l-1H-benzo[de]isoquinoline-1,3(2H)-dione]",> 10 µM,> 80 mg/kg,
"COc1cc(/C=N\c2cc3c4c(cccc4c2)C(=O)N(CCN(C)C)C3=O)cc(OC)c1OC [Example 20, 2-[2-(dimethylamino)ethyl]-5-{[(1Z)-(3,4,5-trimethoxyphenyl)methylene]amino}-1H-benzo[de]isoquinoline-1,3(2H)-dione]",5 to 10 µM,> 80 mg/kg,
CN(C)CCN1C(=O)c2cccc3cc(NC(=S)Nc4ccc(OC(F)(F)F)cc4)cc(c23)C1=O [Example 21],1 to 5 µM,,
CN(C)CCN1C(=O)c2cccc3cc(NC(=S)NCc4ccc5c(c4)OCO5)cc(c23)C1=O [Example 22],> 10 µM,> 80 mg/kg,

SMILES,"IC50 [1, 2]",MTD at 14 days (in vivo),further results
"CN(C)CCN1C(=O)c2cccc3cc(NC(=S)Nc4ccc(Cl)cc4)cc(c23)C1=O [Example 26, N-[2-[2-(dimethylamino)ethyl]-1,3-dioxo-2,3-dihydro-1H-benzo[de]isoquinolin-5-yl]-N′-(4-chlorophenyl)thiourea]",> 10 µM,> 80 mg/kg,
"CN(C)CCN1C(=O)c2cccc3cc(NC(=S)Nc4ccc(C#N)cc4)cc(c23)C1=O [Example 27, N-[2-[2-(dimethylamino)ethyl]-1,3-dioxo-2,3-dihydro-1H-benzo[de]isoquinolin-5-yl]-N′-(4-cyanophenyl)thiourea]",> 10 µM,> 80 mg/kg,
"CN(C)CCN1C(=O)c2cccc3cc(N=Cc4ccc(C#N)cc4)cc(c23)C1=O [Example 28, 2-[2-dimethylamino)ethyl]-5-{[(1Z)-(4-cyano-phenyl)-5-ylmethylene]amino}-1H-benzo[de]isoquinolin-1,3(2H)-dione]",5 to 10 µM,> 80 mg/kg,
"CN(C)CCN1C(=O)c2cccc3cc(NC(=O)C(F)(F)F)cc(c23)C1=O [Example 29, 2,2,2-trifluoro-N-{2-[2-(dimethylamino)ethyl]-1,3-dioxo-2,3-dihydro-1H-benzo[de]isoquinolin-5-yl}acetamide]",5 to 10 µM,,
COc1ccc(NC(=O)Nc2cc3c4c(cccc4c2)C(=O)N(CCN(C)C)C3=O)cc1 [Example 30],1 to 5 µM,,
COc1ccc(OC(=O)Nc2cc3c4c(cccc4c2)C(=O)N(CCN(C)C)C3=O)cc1 [Example 31],,,"IC50 ([1]; Homo sapiens, 72 h): 10 µM"
"CN(C)CCN1C(=O)c2cccc3cc(NC(=O)c4ccccc4)cc(c23)C1=O [Example 32, 2-[2-(dimethylamino)ethyl]-1,3-dioxo-2,3-dihydro-1H-benzo[de]isoquinolin-5-ylbenzamide]",> 10 µM,,
"CN(C)CCN1C(=O)c2cccc3cc(/N=C\c4cc(O)ccc4O)cc(c23)C1=O.Cl [Example 34, 2-[2-dimethylamino)ethyl]-5-{[(1Z)-(2,5-dihydroxyphenyl)methylene]amino}-1H-benzo[de]isoquinolin-1,3(2H)-dione hydrochloride]",,,IC50 ([1]; read-out: IC50): 1 to 5 µM
"CN(C)CCN1C(=O)c2cccc3cc(NCc4ccc5c(c4)OCO5)cc(c23)C1=O [Example 36, 5-{[1,3-benzodioxol-5-ylmethyl]amino}-N-(2-[2-dimethylamino)ethyl]-1H-benzo[de]isoquinolin-1,3(2H)-dione]",5 to 10 µM,> 80 mg/kg,
CN(C)CCN1C(=O)c2cccc3cc(NCc4ccccc4OC4OC(CO)C(O)C(O)C4O)cc(c23)C1=O (stereo not drawn) [Example 37],5 to 10 µM,> 80 mg/kg,
"CN(C)CCN1C(=O)c2cccc3cc(NCc4ccc5c(c4)OCO5)cc(c23)C1=O.Cl [Example 38, 5-{[1,3-benzodioxol-5-ylmethy]amino}-N-(2-[2-dimethylamino)ethyl]-1H-benzo[de]isoquinolin-1,3(2H)-dione hydrochloride]",,> 80 mg/kg,
"CN(C)CCN1C(=O)c2cccc3cc(NCc4ccccc4OC4OC(CO)C(O)C(O)C4O)cc(c23)C1=O.Cl (stereo not drawn) [Example 39, 5-{[2-(2-phenoxy-)-6-hydroxymethyltetrahydro-pyran-3,4,5-triol)-5-ylmethyl]amino}-N-(2-[2-dimethylamino)ethyl]-1H-benzo [de]isoquinolin-1,3(2H)-dione hydrochloride]",,,"IC50 [1, 3]: > 10 µM"
CN(C)CCN1C(=O)c2cccc3cc(NCc4ccccc4OC4OC(CO)C(O)C(O)C4O)cc(c23)C1=O.Cl (stereo not drawn) [Example 39],,> 80 mg/kg,
CN(C)CCN1C(=O)c2cccc3cc(NCc4cc5c(cc4[N+](=O)[O-])OCO5)cc(c23)C1=O [Example 40],> 10 µM,> 80 mg/kg,
"CN(C)CCN1C(=O)c2cccc3cc(NCc4cc5c(cc4[N+](=O)[O-])OCO5)cc(c23)C1=O.Cl [Example 41, 5-{[(benzo([1,3]dioxol-6-nitro)-5-ylmethyl]amino}-N-(2-[2-dimethylamino)ethyl]-1H-benzo[de]isoquinolin-1,3(2H)-dione hydrochloride]",,,"IC50 [1, 3]: 5 to 10 µM"
CN(C)CCN1C(=O)c2cccc3cc(NCc4cc5c(cc4[N+](=O)[O-])OCO5)cc(c23)C1=O.Cl [Example 41],,> 80 mg/kg,

# Reference: patent US20070117836A1, “NAPTHALIMIDE DERIVATIVES, METHODS FOR THEIR PRODUCTION AND PHARMACEUTICAL COMPOSITIONS THEREFROM” (priority 2004, published 2007)
